These results are taken from publication doi:10.1101/2025.07.31.667081v1 (biorxiv, 2025).

Positions count from the first letter of the chain named.

Common to all, as to type: cell-based
The target in assay [1] is T1, NVL-SNAP (recombinant NVL WT; SNAP-NVL-3xFlag) (Homo sapiens, UniProt O15381).
T1 sequence (O15381 1-856): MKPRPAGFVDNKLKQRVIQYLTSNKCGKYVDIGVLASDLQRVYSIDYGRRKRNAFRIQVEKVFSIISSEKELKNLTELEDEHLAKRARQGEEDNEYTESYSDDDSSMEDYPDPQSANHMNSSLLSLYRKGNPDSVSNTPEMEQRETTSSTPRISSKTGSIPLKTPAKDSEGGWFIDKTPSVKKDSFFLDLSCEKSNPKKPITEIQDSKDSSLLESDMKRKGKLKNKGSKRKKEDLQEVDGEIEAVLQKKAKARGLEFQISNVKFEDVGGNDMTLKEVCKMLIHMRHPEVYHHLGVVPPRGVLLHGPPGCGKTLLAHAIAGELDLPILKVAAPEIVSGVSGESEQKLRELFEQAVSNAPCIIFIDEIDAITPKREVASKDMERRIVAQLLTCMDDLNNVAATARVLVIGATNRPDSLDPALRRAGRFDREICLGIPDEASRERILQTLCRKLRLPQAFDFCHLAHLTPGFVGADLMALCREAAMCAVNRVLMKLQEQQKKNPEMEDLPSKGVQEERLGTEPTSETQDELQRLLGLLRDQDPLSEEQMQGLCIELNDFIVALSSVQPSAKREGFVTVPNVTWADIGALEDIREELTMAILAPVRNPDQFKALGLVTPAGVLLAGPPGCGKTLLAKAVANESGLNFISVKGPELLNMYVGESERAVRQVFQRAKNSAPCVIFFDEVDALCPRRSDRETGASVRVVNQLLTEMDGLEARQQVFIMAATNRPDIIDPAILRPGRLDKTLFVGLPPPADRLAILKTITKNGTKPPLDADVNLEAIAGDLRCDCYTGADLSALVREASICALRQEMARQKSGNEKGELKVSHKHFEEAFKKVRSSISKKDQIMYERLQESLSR
The assay can be described thus: in-cell UV photocrosslinking, click dye, gel fluorescence of purified NVL.

Assay [2] addresses T2, NVL-SNAP (recombinant NVL WT; SNAP-NVL-3xFlag) (Homo sapiens, UniProt O15381, R403W).
T2 sequence (O15381 1-856 R403W): T1 sequence (O15381 1-856) with R403W
Described as above.

Assay [3] addresses T1, NVL-SNAP (recombinant NVL WT; SNAP-NVL-3xFlag). Briefly: competition of MM514 photocrosslinking to NVL-SNAP.

`C#CCOCCN1C(=O)c2ccccc2Sc2cc(NC(=O)c3ccc(N=[N+]=[N-])cc3)ccc21` [MM514, 4-Azido-N-(11-oxo-10-(2-(prop-2-yn-1-yloxy)ethyl)-10,11-dihydro-dibenzo[b,f][1,4]thiazepin-7-yl)benzamide]: the EC50 in assay [1] was 490 nM; in assay [2] it was above 17000 nM. For `COCCN1C(=O)c2ccccc2Sc2cc(NC(=O)c3ccc(OC)cc3)ccc21` [MM524, 4-Methoxy-N-(10-(2-methoxyethyl)-11-oxo-10,11-dihydrodibenzo[b,f][1,4]thiazepin-7-yl)benzamide], the EC50 in assay [3] amounted to 2600 nM.

As for `COCCN1C(=O)c2ccccc2Sc2cc(NC(=O)c3ccccc3OC)ccc21` [MM691, 2-Methoxy-N-(10-(2-methoxyethyl)-11-oxo-10,11-dihydrodibenzo[b,f][1,4]thiazepin-7-yl)benzamide], the EC50 in assay [3] was 26000 nM.
